Consider 19 compounds from paper PMC4901301 (Scientific Reports, 2016).

In brackets after ≈: the same amount, converted by molar mass. Where two headings read alike, the source gives them in different places. Bounds are passed on as bounds.

Format in all cases: cell-based, Mycobacterium tuberculosis
The test system of experiment [1] is Mtb TC 12561. In words: Resazurin (Alamar Blue) drug susceptibility testing, TC 12561.
The test system of experiment [2] is Mtb MT 182. The experiment is described as follows: Resazurin (Alamar Blue) drug susceptibility testing, MT 182. A general note: Alamar Blue is a resazurin reagent that responds to reducing activity.
Experiment [3] relates to Mtb TH 12768. In words: Resazurin (Alamar Blue) drug susceptibility testing, TH 12768.
Experiment [4] concerns Mtb H37Rv thyX Tet-OFF conditional knockdown mutant.

Broadly, the MIC is the lowest concentration that inhibits growth of the organism. As to `O=C1C(O)=C(Cc2ccc(Cl)cc2)C(=O)c2ccccc21` [Compound 010A], the MIC in experiment [1] (read-out: MIC) worked out at 52.3 µM (≈ 15.6 µg/mL); in experiment [2] (read-out: MIC), 104.6 µM (≈ 31.2 µg/mL); in experiment [3] (read-out: MIC) it was 104.6 µM (≈ 31.2 µg/mL).

As to `O=C1C(O)=C(Cc2ccc(Oc3ccccc3)cc2)C(=O)c2ccccc21` [Compound 007G], the MIC in experiment [1] (read-out: MIC) is on record as 87.8 µM (≈ 31.3 µg/mL); in experiment [2] (read-out: MIC), 87.8 µM (≈ 31.3 µg/mL); in experiment [3] (read-out: MIC), 175.5 µM (≈ 62.5 µg/mL).

As for `CO[C@H]1/C=C/O[C@@]2(C)Oc3c(C)c(O)c4c(O)c(c(/C=N/N5CCN(C)CC5)c(O)c4c3C2=O)NC(=O)/C(C)=C\C=C\[C@H](C)[C@H](O)[C@@H](C)[C@@H](O)[C@@H](C)[C@H](OC(C)=O)[C@@H]1C` [RMP, rifampicin, reference compound], the MIC in experiment [1] (Mycobacterium tuberculosis, TC12561) was 4.86 µM (≈ 4 µg/mL); in experiment [2] (Mycobacterium tuberculosis, MT182), 1.21 µM (≈ 0.996 µg/mL); in experiment [3] (Mycobacterium tuberculosis, TH12768), < 0.3 µM.

Regarding `CC(C)Oc1ccc(CC2=C(O)C(=O)c3ccccc3C2=O)cc1` [Compound 007D], the MIC in experiment [1] (read-out: MIC), in experiment [2] (read-out: MIC) and in experiment [3] (read-out: MIC) was 96.9 µM (≈ 31.2 µg/mL) in each case.

For the compound `CS(=O)(=O)N1CCN(C2=C(Cl)C(=O)c3ccccc3C2=O)CC1` [Compound E1, 2-chloro-3-(4-methanesulfonylpiperazin-1-yl)-1,4-dihydronaphthalene-1,4-dione], in experiment [4], the “MIC90 shift (increase in potency) upon ThyX depletion” value is on record as ≥ 4 fold.

Regarding `O=C1C(O)=C(Cc2ccc(-c3ccc(Cl)cc3)cc2)C(=O)c2ccccc21` [Compound 007B], the MIC in experiment [1] (read-out: MIC) amounted to 83.4 µM (≈ 31.3 µg/mL); in experiment [2] (read-out: MIC), 83.4 µM (≈ 31.3 µg/mL); in experiment [3] (read-out: MIC), 41.7 µM (≈ 15.6 µg/mL).

As for `O=C1C(O)=C(Cc2ccc(F)c(Cl)c2)C(=O)c2ccccc21` [Compound 010F], the MIC in experiment [1] (read-out: MIC) came out at 49.3 µM (≈ 15.6 µg/mL); in experiment [2] (read-out: MIC), 98.7 µM (≈ 31.3 µg/mL); in experiment [3] (read-out: MIC), 197.3 µM (≈ 62.5 µg/mL).

As to `CCOC(=O)C1=C(c2ccc(C)cc2)C(=O)c2ccccc2C1=O` [Compound B6, ethyl 3-(4-methylphenyl)-1,4-dioxonaphtalene-2-carboxylate], the “MIC90 shift (increase in potency) upon ThyX depletion” value in experiment [4] is “no shift”.

Take `NNC(=O)c1ccncc1` [INH, isoniazid, reference compound]: the MIC was 14.6 µM (≈ 2 µg/mL) in experiment [1] (Mycobacterium tuberculosis, TC12561, read-out: MIC); < 0.91 µM in experiment [2] (Mycobacterium tuberculosis, MT182, read-out: MIC); 3.64 µM (≈ 0.499 µg/mL) in experiment [3] (Mycobacterium tuberculosis, TH12768, read-out: MIC).

For `COc1ccc(CC2=C(O)C(=O)c3ccccc3C2=O)cc1OC` [Compound 010K], the figures for the MIC in experiment [1] (read-out: MIC), in experiment [2] (read-out: MIC) and in experiment [3] (read-out: MIC) were 192.7 µM (≈ 62.5 µg/mL), 385.4 µM (≈ 125 µg/mL) and 192.7 µM (≈ 62.5 µg/mL), respectively.

As for `O=C1C(O)=C(Cc2ccc(OC(F)(F)F)cc2)C(=O)c2ccccc21` [Compound 007C], the minimum inhibitory concentration (MIC) in experiment [1] (read-out: MIC), in experiment [2] (read-out: MIC) and in experiment [3] (read-out: MIC) was 44.9 µM (≈ 15.6 µg/mL) in each case.

Regarding `COc1cc(CC2=C(O)C(=O)c3ccccc3C2=O)ccc1O` [Compound 010H], the MIC is recorded as 201.4 µM (≈ 62.5 µg/mL) in experiment [1] (read-out: MIC), 100.7 µM (≈ 31.2 µg/mL) in experiment [2] (read-out: MIC) and 201.4 µM (≈ 62.5 µg/mL) in experiment [3] (read-out: MIC).

With `O=C1C(O)=C(Cc2ccc(F)c(C(F)(F)F)c2)C(=O)c2ccccc21` [Compound 010E], the minimum inhibitory concentration (MIC) in experiment [1] (read-out: MIC), in experiment [2] (read-out: MIC) and in experiment [3] (read-out: MIC) was 22.3 µM (≈ 7.81 µg/mL) in each case.

With `O=C1C(O)=C(Cc2cc(F)cc(F)c2)C(=O)c2ccccc21` [Compound 010B], the figures for the MIC in experiment [1] (read-out: MIC), in experiment [2] (read-out: MIC) and in experiment [3] (read-out: MIC) were 104.1 µM (≈ 31.3 µg/mL), 104.1 µM (≈ 31.3 µg/mL) and 52.1 µM (≈ 15.6 µg/mL), respectively.

As for `O=C1C(O)=C(Cc2cccs2)C(=O)c2ccccc21` [Compound 010D], the MIC is 57.8 µM (≈ 15.6 µg/mL) in experiment [1] (read-out: MIC), 462.4 µM (≈ 125 µg/mL) in experiment [2] (read-out: MIC) and 231.2 µM (≈ 62.5 µg/mL) in experiment [3] (read-out: MIC).

Regarding `O=C1C(O)=C(Cc2ccc(C(F)(F)F)cc2)C(=O)c2ccccc21` [Compound 007F], the MIC in experiment [1] (read-out: MIC) is 47.0 µM (≈ 15.6 µg/mL); in experiment [2] (read-out: MIC), 94.1 µM (≈ 31.3 µg/mL); in experiment [3] (read-out: MIC) it was 94.1 µM (≈ 31.3 µg/mL).

As to `COC1=C(OC)C(=O)C(CCCCCCCCCCO)=C(C)C1=O` [Idebenone, idebenone, reference compound], the Growth inhibition in experiment [4] is recorded as ~ 90%.

As to `O=C1C(O)=C(Cc2ccco2)C(=O)c2ccccc21` [Compound 010C], the MIC in experiment [1] (read-out: MIC), in experiment [2] (read-out: MIC) and in experiment [3] (read-out: MIC) was 176.5 µM (≈ 44.9 µg/mL) in each case.

Take `CCCCC1=C(O)C(=O)c2ccccc2C1=O` [Compound 010I]: the MIC was determined as 271.4 µM (≈ 62.5 µg/mL) in experiment [1] (read-out: MIC), 135.7 µM (≈ 31.2 µg/mL) in experiment [2] (read-out: MIC) and 135.7 µM (≈ 31.2 µg/mL) in experiment [3] (read-out: MIC).
